Laboratory results reported in patent publication US7964352B2, “3′-OH unblocked nucleotides and nucleosides, base modified with labels and photocleavable, terminating groups and methods for their use in DNA sequencing” (priority 2006, dated 2011).
Where two headings read alike, the source gives them in different places.

How the values were obtained:
T[…] polymerase = biological target: T1, T[…] polymerase (Thermococcus sp., UniProt Q56366, A485L/D141A/E143A); assay: Polymerase end-point (PEP) assay, Therminator; format: biochemical, Thermococcus species 9°N-7
T1 construct: purchased
T1 sequence (Q56366 whole entry D141A/E143A/A485L): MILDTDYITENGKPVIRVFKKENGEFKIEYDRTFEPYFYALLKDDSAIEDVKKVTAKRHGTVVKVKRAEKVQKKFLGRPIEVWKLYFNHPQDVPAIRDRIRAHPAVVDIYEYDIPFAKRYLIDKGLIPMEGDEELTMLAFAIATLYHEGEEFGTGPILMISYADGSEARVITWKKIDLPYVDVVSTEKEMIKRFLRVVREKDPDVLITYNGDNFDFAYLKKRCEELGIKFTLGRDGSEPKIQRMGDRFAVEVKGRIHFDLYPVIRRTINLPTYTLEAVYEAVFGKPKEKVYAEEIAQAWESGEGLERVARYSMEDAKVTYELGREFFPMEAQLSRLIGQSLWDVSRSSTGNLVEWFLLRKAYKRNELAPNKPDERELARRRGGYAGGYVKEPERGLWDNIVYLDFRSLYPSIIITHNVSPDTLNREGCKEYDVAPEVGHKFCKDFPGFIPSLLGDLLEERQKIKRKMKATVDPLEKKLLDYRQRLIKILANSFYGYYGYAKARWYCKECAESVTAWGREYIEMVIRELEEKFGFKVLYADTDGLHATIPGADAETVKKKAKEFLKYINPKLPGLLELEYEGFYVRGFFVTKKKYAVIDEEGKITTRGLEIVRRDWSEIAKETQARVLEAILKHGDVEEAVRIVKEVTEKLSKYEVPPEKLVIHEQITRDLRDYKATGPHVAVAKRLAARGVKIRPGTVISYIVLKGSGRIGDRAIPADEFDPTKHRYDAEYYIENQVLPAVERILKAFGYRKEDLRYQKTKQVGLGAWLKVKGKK
Source text: (§1) Numerous groups have employed qualitative, Sanger-based assays to estimate relative incorporation efficiencies of terminating nucleotide analogs compared to their natural nucleotide counterparts. Although useful, the ability to assay modified nucleotide analogs in the absence of natural nucleotides is not feasible using these assays. These two limitations led to a quantitative, polymerase end-point (PEP) assay, which is utilized in a high-throughput manner for screening numerous modified nucleotides against a number of well-characterized, commercially available polymerases. Identification of lead compounds with a specific DNA polymerase could then be prioritized for further kinetic studies. The PEP assay is designed with the polymerase concentration in excess of the primer/template complex (i.e., this complex is fully bounded with polymerase at the start of the titration), thereby limiting reaction to nucleotide binding and nucleotyl coupling steps. Limiting amounts of the desired nucleotide are then titrated across the appropriate concentration range (generally three orders of magnitude) to observe extension of a dye-labeled primer by gel electrophoresis. The end-point concentration is determined from a semi-log plot where the number of moles of substrate and product are equal, called the IC50 (i.e., incorporation concentration at 50%) value.
(§2) For all polymerases evaluated in this study, 40 nM of oligo-template (5′-TACGGAGCA-[…], interrogation base is underlined and bolded) was annealed to 5 nM BODIPY-FL labeled primer (5′-TTGTAAAACGACGGCCAGT) in 1× ThermoPol buffer (20 mM Tris-HCl, pH 8.8; 10 mM (NH4)2SO4, 10 mM KCl; 2 mM MgSO4; 0.1% Triton X-100, New England BioLabs) at 80° C. for 30 seconds, 57° C. for 30 seconds, and then cooled to 4° C. The primer/template complex is then diluted by one-half (i.e., its final concentration is 2.5 nM in a volume of 10 μL) by the addition of DNA polymerase, nucleotide analog, and ThermoPol buffer. This defines the lower limit of the IC50 value for nucleotide titrations to 1.25 nM (i.e., [primer]=[primer+1]). Polymerase reactions were incubated at their appropriate temperature for 10 minutes, then cooled to 4° C. and quenched with 10 μL of stop solution (98% deionized formamide; 10 mM Na2EDTA, pH 8.0; 25 mg/mL Blue Dextran, MW 2,000,000). Stopped reactions were heated to 90° C. for 30 seconds, and then placed on ice. […] The PEP assays were performed in triplicate for each DNA polymerase/nucleotide analog combination to calculate its IC50 values±one standard deviation.
(§3) The number of activity units for eight commercially available, 3′-exonuclease deficient (3′-exo-) DNA polymerases was first determined by titration with 2′-deoxyadenosine triphosphate (dATP, concentration range from 0.1 nM to 100 nM) with the goal of reaching the PEP IC50 limit of 1.25 nM (data not shown). In general, increasing the number of units reduced the IC50 values for dATP towards this limit, with exception with Taq, THERMINATOR™, and THERMINATOR™ II. For these enzymes, there was an increase in IC50 values for dATP with increasing enzyme concentration, which was not investigated further and presumed to be due to a direct relationship with increasing enzyme concentration and phosphorolysis. For these cases, the number of units used for subsequent PEP assays were those activity units that gave the lowest IC50 values for dATP.
(§4) WW1p129 and ddATP were then titrated using the PEP assay with the eight DNA polymerases (unit activities previously defined) in the concentration range of either 0.1 nM to 100 nM, 1 nM to 1μM, 10 nM to 10μM, or 100 nM to 100 μM (see Table 1). UV-light sensitive compounds were handled at all times in low light conditions to minimize conversion to dATP.

Bst DNA polymerase = biological target: T2, Bst DNA polymerase (Geobacillus stearothermophilus, UniProt P52026); assay: Polymerase end-point (PEP) assay, Bst; format: biochemical
T2 construct: purchased
T2 sequence (P52026 1-876): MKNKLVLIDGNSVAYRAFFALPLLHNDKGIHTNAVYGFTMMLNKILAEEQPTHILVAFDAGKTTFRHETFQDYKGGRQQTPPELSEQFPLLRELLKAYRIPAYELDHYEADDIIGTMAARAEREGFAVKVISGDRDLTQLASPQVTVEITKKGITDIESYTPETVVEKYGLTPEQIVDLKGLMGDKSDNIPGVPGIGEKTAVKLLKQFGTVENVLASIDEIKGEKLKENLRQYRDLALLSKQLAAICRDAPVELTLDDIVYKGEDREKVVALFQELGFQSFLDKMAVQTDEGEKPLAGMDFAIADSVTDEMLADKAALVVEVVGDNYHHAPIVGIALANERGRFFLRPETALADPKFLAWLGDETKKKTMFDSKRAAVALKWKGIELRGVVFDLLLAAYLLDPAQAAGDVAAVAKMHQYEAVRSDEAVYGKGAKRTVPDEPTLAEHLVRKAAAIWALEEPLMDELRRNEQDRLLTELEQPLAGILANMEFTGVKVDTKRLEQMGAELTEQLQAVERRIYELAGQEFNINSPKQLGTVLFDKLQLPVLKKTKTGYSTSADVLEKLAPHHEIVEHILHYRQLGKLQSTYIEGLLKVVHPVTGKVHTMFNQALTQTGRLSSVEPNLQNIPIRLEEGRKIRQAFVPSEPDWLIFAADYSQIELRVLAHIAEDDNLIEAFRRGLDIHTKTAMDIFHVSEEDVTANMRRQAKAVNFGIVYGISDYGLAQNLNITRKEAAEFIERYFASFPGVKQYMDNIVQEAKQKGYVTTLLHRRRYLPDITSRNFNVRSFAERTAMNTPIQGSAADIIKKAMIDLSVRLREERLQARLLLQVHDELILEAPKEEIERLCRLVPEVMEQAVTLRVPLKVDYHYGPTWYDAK
Source text: as §1, §2, §3, §4

[1] = biological target: T3, DeepVent (3′-exo-) DNA polymerase (Pyrococcus sp., UniProt Q51334, D141A/DEL493-1029/E143A); assay: Polymerase end-point (PEP) assay, DeepVent (3′-exo-); format: biochemical, Pyrococcus species GB-D
T3 construct: purchased
T3 sequence (Q51334 other isoform, or with tags, fused parts or gaps D141A/E143A/DEL493-1029): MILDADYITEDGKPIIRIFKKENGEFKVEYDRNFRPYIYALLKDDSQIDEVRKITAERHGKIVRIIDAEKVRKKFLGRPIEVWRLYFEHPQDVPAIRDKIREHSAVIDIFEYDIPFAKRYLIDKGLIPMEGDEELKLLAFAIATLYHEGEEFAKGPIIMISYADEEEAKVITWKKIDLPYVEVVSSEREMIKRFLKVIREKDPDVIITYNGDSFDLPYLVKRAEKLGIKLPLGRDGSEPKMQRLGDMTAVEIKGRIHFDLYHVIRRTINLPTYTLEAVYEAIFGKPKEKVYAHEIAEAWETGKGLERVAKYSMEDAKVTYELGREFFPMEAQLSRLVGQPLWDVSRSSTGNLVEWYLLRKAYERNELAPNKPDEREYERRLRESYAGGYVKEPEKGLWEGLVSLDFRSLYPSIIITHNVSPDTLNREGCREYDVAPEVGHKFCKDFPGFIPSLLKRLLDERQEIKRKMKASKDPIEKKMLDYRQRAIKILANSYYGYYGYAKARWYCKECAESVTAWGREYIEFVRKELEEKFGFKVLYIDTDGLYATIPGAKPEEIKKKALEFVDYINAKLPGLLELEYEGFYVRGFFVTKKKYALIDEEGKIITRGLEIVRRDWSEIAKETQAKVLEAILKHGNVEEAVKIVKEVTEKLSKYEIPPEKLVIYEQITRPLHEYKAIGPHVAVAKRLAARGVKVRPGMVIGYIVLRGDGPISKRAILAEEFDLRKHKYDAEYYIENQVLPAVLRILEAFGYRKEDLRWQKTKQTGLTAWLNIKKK
Source text: as §1
(§5) For all polymerases evaluated in this study, 40 nM of oligo-template (5′-TACGGAGCA-[…], interrogation base is underlined and bolded) was annealed to 5 nM BODIPY-FL labeled primer (5′-TTGTAAAACGACGGCCAGT) in 1× ThermoPol buffer (20 mM Tris-HCl, pH 8.8; 10 mM (NH4)2SO4, 10 mM KCl; 2 mM MgSO4; 0.1% Triton X-100, New England BioLabs) at 80° C. for 30 seconds, 57° C. for 30 seconds, and then cooled to 4° C. The primer/template complex is then diluted by one-half (i.e., its final concentration is 2.5 nM in a volume of 10 μL) by the addition of DNA polymerase, nucleotide analog, and ThermoPol buffer. This defines the lower limit of the IC50 value for nucleotide titrations to 1.25 nM (i.e., [primer]=[primer+1]). […]

[2] = biological target: T4, Klenow (3′-exo-) DNA polymerase (Escherichia coli, UniProt P00582, D355A/E357A); assay: Polymerase end-point (PEP) assay, Klenow (3′-exo-); format: biochemical; details: Klenow (3′-exo-): 37° C.; incorporation concentration at 50%
T4 construct: Klenow(-exo-) DNA polymerase; purchased
T4 sequence (P00582 324-928 D355A/E357A): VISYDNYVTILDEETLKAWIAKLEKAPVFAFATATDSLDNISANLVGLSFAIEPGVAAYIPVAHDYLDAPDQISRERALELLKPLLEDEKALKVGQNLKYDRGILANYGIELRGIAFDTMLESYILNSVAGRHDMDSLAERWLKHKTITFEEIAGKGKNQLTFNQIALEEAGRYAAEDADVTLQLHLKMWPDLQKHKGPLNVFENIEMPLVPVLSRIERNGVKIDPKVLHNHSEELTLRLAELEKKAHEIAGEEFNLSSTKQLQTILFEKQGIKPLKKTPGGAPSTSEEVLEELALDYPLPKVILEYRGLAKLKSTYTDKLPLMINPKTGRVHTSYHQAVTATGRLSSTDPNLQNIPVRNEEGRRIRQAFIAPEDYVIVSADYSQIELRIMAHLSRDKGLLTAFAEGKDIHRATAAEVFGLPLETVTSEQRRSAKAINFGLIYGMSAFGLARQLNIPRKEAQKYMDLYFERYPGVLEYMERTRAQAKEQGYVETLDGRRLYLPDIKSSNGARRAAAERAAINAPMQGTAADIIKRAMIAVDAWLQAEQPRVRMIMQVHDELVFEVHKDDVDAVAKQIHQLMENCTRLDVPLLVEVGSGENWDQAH
Source text: as §1, §5

[3] = biological target: T5, AMPLITAQ DNA polymerase, FS (Taq FS) (Thermus aquaticus, UniProt P19821, F667Y/G46D); assay: Polymerase end-point (PEP) assay, Taq FS; format: biochemical; details: Taq FS: 68° C.; incorporation concentration at 50%
T5 construct: purchased
T5 sequence (P19821 whole entry G46D/F667Y): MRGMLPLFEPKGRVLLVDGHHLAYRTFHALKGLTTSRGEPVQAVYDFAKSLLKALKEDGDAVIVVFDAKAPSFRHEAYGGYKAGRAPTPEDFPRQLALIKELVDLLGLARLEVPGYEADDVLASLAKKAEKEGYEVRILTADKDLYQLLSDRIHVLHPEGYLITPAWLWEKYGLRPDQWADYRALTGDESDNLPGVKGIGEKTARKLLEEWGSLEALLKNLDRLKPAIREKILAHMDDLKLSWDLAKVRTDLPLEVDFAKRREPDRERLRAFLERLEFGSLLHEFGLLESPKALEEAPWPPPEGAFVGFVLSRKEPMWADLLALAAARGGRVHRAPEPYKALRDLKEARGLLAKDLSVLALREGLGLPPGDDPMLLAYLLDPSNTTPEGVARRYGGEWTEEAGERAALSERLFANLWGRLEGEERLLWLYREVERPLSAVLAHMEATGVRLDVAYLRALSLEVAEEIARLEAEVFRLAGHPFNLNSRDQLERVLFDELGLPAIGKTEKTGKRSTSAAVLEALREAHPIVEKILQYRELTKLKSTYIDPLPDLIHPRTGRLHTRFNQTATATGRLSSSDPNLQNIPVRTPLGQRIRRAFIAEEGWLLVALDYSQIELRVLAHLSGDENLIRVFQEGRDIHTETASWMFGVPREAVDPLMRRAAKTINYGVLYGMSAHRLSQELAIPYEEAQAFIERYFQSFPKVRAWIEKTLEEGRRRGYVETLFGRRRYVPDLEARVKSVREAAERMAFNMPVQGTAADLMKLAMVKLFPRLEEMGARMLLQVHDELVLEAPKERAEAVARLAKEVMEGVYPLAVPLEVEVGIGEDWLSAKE
Source text: as §1, §5

Taq DNA polymerase = biological target: T6, Taq DNA polymerase (Thermus aquaticus, UniProt P19821); assay: Polymerase end-point (PEP) assay, Taq; format: biochemical; details: Taq: 68° C.; incorporation concentration at 50%
T6 construct: purchased
T6 sequence (P19821 whole entry): as the sequence (P19821 whole entry G46D/F667Y) above, with D46G, Y667F counted along it
Source text: as §1, §5

T[…] DNA polymerase = biological target: T7, T[…] DNA polymerase (Thermococcus sp., UniProt Q56366, A485L/D141A/E143A/Y409V); assay: Polymerase end-point (PEP) assay, Therminator II; format: biochemical, Thermococcus species 9°N-7; details: Therminator II: 75° C.; incorporation concentration at 50%
T7 construct: purchased
T7 sequence (Q56366 whole entry D141A/E143A/Y409V/A485L): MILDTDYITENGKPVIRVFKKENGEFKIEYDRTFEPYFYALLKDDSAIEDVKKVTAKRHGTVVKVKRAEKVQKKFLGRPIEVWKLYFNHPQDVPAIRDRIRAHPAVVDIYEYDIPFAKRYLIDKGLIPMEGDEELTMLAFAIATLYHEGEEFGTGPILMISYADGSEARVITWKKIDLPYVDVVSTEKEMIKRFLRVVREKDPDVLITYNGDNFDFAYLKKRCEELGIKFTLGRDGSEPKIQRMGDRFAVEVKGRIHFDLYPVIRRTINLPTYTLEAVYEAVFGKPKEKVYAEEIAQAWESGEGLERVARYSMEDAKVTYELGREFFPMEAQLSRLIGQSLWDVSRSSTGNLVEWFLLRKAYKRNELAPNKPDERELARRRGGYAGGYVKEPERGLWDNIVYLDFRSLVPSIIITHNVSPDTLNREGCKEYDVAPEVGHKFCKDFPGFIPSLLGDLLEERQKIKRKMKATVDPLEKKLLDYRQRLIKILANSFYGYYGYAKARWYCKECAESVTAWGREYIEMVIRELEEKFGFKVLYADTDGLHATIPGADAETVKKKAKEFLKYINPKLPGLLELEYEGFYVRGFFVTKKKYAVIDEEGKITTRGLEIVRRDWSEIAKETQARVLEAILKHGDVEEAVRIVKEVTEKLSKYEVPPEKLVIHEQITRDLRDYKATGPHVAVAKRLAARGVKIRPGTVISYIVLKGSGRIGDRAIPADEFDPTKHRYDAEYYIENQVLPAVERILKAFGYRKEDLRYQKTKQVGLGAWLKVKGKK
Source text: as §1, §5

[4] = biological target: T8, Vent (3′-exo-) DNA polymerase (Thermococcus litoralis, UniProt P30317, D141A/DEL1082-1471/DEL495-1032/E143A); assay: Polymerase end-point (PEP) assay, Vent (3′-exo-); format: biochemical
T8 construct: purchased
T8 sequence (P30317 other isoform, or with tags, fused parts or gaps D141A/E143A/DEL495-1032/DEL1082-1471): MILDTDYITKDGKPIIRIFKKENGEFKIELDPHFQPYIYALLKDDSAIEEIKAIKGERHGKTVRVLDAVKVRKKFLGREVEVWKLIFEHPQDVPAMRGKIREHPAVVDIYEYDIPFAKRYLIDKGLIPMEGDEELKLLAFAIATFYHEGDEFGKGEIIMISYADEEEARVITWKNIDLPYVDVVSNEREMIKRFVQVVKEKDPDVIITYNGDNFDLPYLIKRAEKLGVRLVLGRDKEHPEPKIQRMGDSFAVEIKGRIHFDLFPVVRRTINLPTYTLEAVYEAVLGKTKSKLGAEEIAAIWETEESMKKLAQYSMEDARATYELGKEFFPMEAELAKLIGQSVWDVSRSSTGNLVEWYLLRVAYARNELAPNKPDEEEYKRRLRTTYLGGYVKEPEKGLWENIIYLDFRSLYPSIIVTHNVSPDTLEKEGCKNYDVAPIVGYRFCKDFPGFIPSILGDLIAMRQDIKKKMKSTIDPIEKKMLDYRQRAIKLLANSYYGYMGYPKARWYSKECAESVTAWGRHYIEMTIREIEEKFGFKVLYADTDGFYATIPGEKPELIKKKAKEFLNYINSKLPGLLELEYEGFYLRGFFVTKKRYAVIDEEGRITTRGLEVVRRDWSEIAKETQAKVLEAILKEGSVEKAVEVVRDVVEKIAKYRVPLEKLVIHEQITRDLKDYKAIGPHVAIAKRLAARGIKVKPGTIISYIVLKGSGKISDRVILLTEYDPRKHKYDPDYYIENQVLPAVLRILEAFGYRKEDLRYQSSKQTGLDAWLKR
Source text: as §1, §5

[5] = Table 2, incorporation concentration at 50%, read-out: IC50 values, Therminator
[6] = Table 2, incorporation concentration at 50%, read-out: IC50 values, Bst
[7] = Bst: 65° C., IC50 = incorporation concentration at 50%, Table 1, read-out: IC50 values
[8] = DeepVent (3′-exo-): 72° C., incorporation concentration at 50%, read-out: IC50 values
[9] = Therminator: 75° C., incorporation concentration at 50%, Table 1, read-out: IC50 values
[10] = Vent (3′-exo-): 72° C., incorporation concentration at 50%, read-out: IC50 values

| Compound | IC50 (T[…] polymerase; [5]) [nM] | IC50 (Bst DNA polymerase; [6]) [nM] | IC50 [2] [nM] | IC50 [3] [nM] | IC50 (T[…] polymerase; [9]) [nM] | IC50 (Taq DNA polymerase) [nM] | IC50 (T[…] DNA polymerase) [nM] | further results |
| --- | --- | --- | --- | --- | --- | --- | --- | --- |
| 6-JOE Labeled 5-[4-(3-Amino-1-propynyl)-2-nitrobenzyloxymethyl]-2′-deoxyuridine-5′-triphosphate [WW2p075] | 3.8 ± 1.1 |  |  |  |  |  |  |  |
| O=c1[nH]c(=O)n([C@H]2C[C@H](O)[C@@H](COP(=O)(O)OP(=O)(O)OP(=O)(O)O)O2)cc1COCc1ccccc1[N+](=O)[O-] [VL3p03085, 5-(2-Nitrobenzyloxymethyl)-2′-deoxyuridine-5′-triphosphate] | 1.1 ± 0.1 | 138 ± 38 |  |  |  |  |  |  |
| O=[N+]([O-])c1ccccc1CNc1ncnc2c1ncn2[C@H]1C[C@H](O)[C@@H](COP(=O)(O)OP(=O)(O)OP(=O)(O)O)O1 [WW1p129, N^6-(2-Nitrobenzyl)-2′-deoxyadenosine-5′-triphosphate] | 2.5 ± 0.4 | 39 ± 9 | 4.3 ± 0.2 | 890 ± 60 | 3.1 ± 0.4 | 2100 ± 200 | 7.8 ± 0.7 | IC50 (Bst DNA polymerase; [7]): 21 ± 3 nM; IC50 [1, 8]: 11 ± 0.6 nM; IC50 [4, 10]: 2.1 ± 0.2 nM |
| O=c1nc(NCc2ccccc2[N+](=O)[O-])ccn1[C@H]1C[C@H](O)[C@@H](COP(=O)(O)OP(=O)(O)OP(=O)(O)O)O1 [WW2p044, N^4-(2-Nitrobenzyl)-2′-deoxycytidine-5′-triphosphate] |  | 57 ± 11 |  |  |  |  |  | IC50 (T[…] polymerase): 1.8 ± 0.2 nM |
| Nc1nc(OCc2ccccc2[N+](=O)[O-])c2ncn([C@H]3C[C@H](O)[C@@H](COP(=O)(O)OP(=O)(O)OP(=O)(O)O)O3)c2n1 [WW2p077, O^6-(2-Nitrobenzyl)-2′-deoxyguanosine-5′-triphosphate] | 6.9 ± 0.5 | 3800 ± 200 |  |  |  |  |  |  |
| CN(C)c1ccc2c(-c3cc(C(=O)NCC#Cc4ccc(CNc5ccn([C@H]6C[C@H](O)[C@@H](COP(=O)(O)OP(=O)(O)OP(=O)(O)O)O6)c(=O)n5)c([N+](=O)[O-])c4)ccc3C(=O)[O-])c3ccc(=[N+](C)C)cc-3oc2c1 [WW2p080, 6-TAMRA Labeled N^4-[4-(3-Amino-1-propynyl)-2-nitrobenzyl]-2′-deoxycytidine-5′-triphosphate] | 3 ± 0.6 |  |  |  |  |  |  |  |
| Nc1nc(OCc2ccc(C#CCNC(=O)c3ccc(C(=O)[O-])c(C4=c5cc6c7c(c5Oc5c4cc4c8c5CCCN8CCC4)CCC[N+]=7CCC6)c3)cc2[N+](=O)[O-])c2ncn([C@H]3C[C@H](O)[C@@H](COP(=O)(O)OP(=O)(O)OP(=O)(O)O)O3)c2n1 [WW2p121, 6-ROX Labeled O^6-[4-(3-Amino-1-propynyl)-2-nitrobenzyl]-2′-deoxyguanosine-5′-triphosphate] |  |  |  |  |  |  |  | IC50 (T[…] polymerase): 6.3 ± 0.4 nM |
| Nc1ncnc2c1ncn2[C@H]1C[C@H](O)[C@@H](COP(=O)(O)OP(=O)(O)OP(=O)(O)O)O1 [dATP, 2′-deoxyadenosine triphosphate] |  |  | 1.6 ± 0.1 | 5.3 ± 0.1 | 2.3 ± 0.3 | 5.5 ± 0.5 | 4.4 ± 0.6 | IC50 [1]: 2.8 ± 0.2 nM; IC50 [4]: 1.6 ± 0.2 nM |
| Nc1ncnc2c1ncn2[C@H]1CC[C@@H](COP(=O)(O)OP(=O)(O)OP(=O)(O)O)O1 [ddATP] |  |  | 29 ± 5 | 3.3 ± 0.1 | 9.7 ± 1.1 | 12600 ± 900 | 230 ± 30 | IC50 (Bst DNA polymerase; [7]): 370 ± 30 nM; IC50 [1, 8]: 3400 ± 400 nM; IC50 [4, 10]: 550 ± 40 nM |
